Assay results taken from publication PMC6066988 (Frontiers in Microbiology, 2018).
Like-named read-outs stand apart in the source and are kept apart here.

Tests used:
[1] = target: T1, DNA topoisomerase I (MtbTopoI) (Mycobacterium tuberculosis, UniProt P9WG49); assay type: biochemical
T1 construct: gene topA

[2] = target: T1, DNA topoisomerase I (MtbTopoI); test: […]; also inhibits cleavage of a 32-mer single-stranded DNA; assay type: biochemical

T1 sequence (P9WG49 whole entry): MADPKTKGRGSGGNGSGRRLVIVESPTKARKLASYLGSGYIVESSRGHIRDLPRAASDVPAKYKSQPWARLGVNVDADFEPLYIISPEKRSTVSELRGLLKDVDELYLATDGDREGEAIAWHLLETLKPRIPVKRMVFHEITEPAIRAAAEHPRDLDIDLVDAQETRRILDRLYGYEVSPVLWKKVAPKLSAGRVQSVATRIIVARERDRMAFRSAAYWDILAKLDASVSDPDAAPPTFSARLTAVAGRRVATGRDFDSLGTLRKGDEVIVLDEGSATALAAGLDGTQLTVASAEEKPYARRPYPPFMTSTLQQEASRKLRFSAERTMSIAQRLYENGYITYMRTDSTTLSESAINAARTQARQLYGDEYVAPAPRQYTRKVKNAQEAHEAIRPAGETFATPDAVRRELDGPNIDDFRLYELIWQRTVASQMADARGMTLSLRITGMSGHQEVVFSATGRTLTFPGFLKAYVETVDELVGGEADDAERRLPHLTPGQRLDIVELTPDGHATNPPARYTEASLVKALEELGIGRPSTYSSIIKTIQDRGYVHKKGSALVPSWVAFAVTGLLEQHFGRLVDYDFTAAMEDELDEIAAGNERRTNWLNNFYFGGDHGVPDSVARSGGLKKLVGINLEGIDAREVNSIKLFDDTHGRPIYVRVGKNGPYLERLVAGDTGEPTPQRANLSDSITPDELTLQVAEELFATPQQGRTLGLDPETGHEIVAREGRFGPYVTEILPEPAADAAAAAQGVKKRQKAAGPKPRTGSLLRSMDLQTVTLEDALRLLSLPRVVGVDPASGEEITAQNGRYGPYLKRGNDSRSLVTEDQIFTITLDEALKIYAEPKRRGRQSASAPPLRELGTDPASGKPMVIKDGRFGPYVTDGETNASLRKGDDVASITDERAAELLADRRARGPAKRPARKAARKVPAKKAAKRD

| SMILES | IC50 [1] | IC50 [2] |
| --- | --- | --- |
| CN(C)CCc1cc2c(c3c1ccc1cc4c(cc13)OCO4)OCO2 [N-SCN, N-methyl-seconeolitsine] | 5.6 ± 0.8 µM |  |
| CNCCc1cc2c(c3c1ccc1cc4c(cc13)OCO4)OCO2 [SCN, seconeolitsine] |  | 8.4 ± 0.3 µM |
